According to US11986530B2, “Drug composition for parenteral administration” (THERABIOPHARMA INC., priority 2016, dated 2024):

Columns and labels:
[1] = system: colorectal cancer cells derived from adult human colon HCT116; assay: Anti-tumor effect by intravenous administration of curcumin conjugates (tumor size, HCT116 transplanted mice); type: in vivo, BALB/cAnNcr j-nu/nu (homo) mice; details: HCT116 mouse
From the text: 1×10^7 or 4×10^6 colorectal cancer cells derived from adult human […] colon HCT116 (ATCC No. CCL-247) were transplanted subcutaneously into the flank of each of the test animals by using a 27 G injection needle.
In this regard, in the control group, mice to which water for injection excluding curcumin monoglucuronide had been administered intravenously were used.
For the tumor size, after each lapse of 0, 4, 7, 11 and 14 days from the start of administration or after each lapse of 0, 4, 7, 11, 14, 18 and 21 days from the start of administration, the length, width and height of the tumor were measured by using a vernier caliper, and the tumor size was calculated by the following equation. Tumor size (mm^3)=length×width×height×0.5 (5) Concentration of Curcumin Conjugates and Free Curcumin in Tumor Tissue

[2] = Serum biochemical test (liver and biliary diseases set, 21 items) in tumor-bearing mice; type: in vivo, BALB/cAnNcr j-nu/nu (homo) mice; details: 30 mg/kg i.v., 14 days from start of administration
[3] = in vivo; details: mouse
Experimental: Intravenous administration of a single dose of curcumin monoglucuronide was performed to each of the mice at each dose of 125, 250, 500 and 1000 mg/kg, and the toxicity thereof was evaluated. In this regard, the number of mice in each group was set to be n=5.
As the test animals, 6-week old Slc:ICR mice (male, with a body weight of 27 to 31 g, Japan SLC, Inc.), which had been purchased and acclimated to the environment for around 6 days, was used.
Observation of the state of each of the mice was performed by recording the type, extent, expression time, recovery time, and death (death detection) time of all of the toxic signs observed macroscopically.
Observation was performed at a time immediately after administration, at a time after each lapse of 30 minutes, 1, 2, 4 and 6 hours from the start of administration, and once a day from the day following the date of administration (up to after the lapse of 14 days from the start of administration).
The body weight was measured by using an electronic balance (UW4200S, Shimadzu Corporation) immediately before administration, and after each lapse of 1, 3, 7, 10 and 14 days from the administration.
Blood biochemical test was performed by the following method. That is, mice were fasted for 4 hours or more after the end of the mouse observation period (after the lapse of 14 days from the start of administration), the fasted mice were subjected to laparotomy under anesthesia by intraperitoneal administration of pentobarbital sodium, and the blood was collected from the abdominal aorta (the amount of the blood was 0.6 mL or more). Next, the collected blood was anti-coagulated with heparin sodium, and then the anti-coagulated blood was centrifuged (4° C., 3000 rpm, for 10 minutes) to obtain the plasma, and transaminase (AST and ALT) contained in the plasma was measured.
After the end of the observation period (after the lapse of 14 days from the start of administration), autopsy was performed as follows: blood was collected from each of the mice under anesthesia with pentobarbital sodium; and then the mice were sacrificed by exsanguination by cutting the abdominal aorta and the caudal vena; each of the sacrificed mice was dissected according to a pathological technique; and the cranium, the intrathoracic organs, the intraperitoneal organs, and the tissues thereof were observed macroscopically.

[4] = system: β-glucuronidase; details: 10 μL of 2.81 μg/mL substrate, pH 5.0, 37° C., 1 hour, n=3
Experimental: In this regard, as a control, curcumin monoglucuronide was used for the examination.
In addition, as the curcumin diglucuronide, commercially available curcumin diglucuronide (manufactured by SynInnova Laboratories Inc.) was used.
Next, into the resultant mixture, 0.5 mL of chloroform was added, and the mixture was stirred for 1 minute with a vortex mixer, and then the stirred mixture was treated for 15 minutes by using an ultrasonic generator, and the treated mixture was fractionated into a chloroform layer and a water layer by centrifugation (10,000×g, for 5 minutes, at room temperature). Further, this fractionation process was repeated twice. After that, the chloroform layer was collected, and dried and solidified by distilling off the solvent with a vacuum centrifugal concentrator, and to the dried and solidified matter, 100 μL of 50% (v/v) methanol was added, and then the resultant mixture was centrifuged (10,000×g, for 5 minutes, at room temperature) to collect a supernatant liquid, and the collected supernatant liquid was taken as an enzyme-treated sample.
In 2 μL of the enzyme-treated sample prepared in the above (2), free curcumin was measured by the method described in “b.

[5] = system: KBM-5; details: KBM-5, in vitro; cited from earlier work
[6] = system: Jurkat cells; details: in vitro; cited from earlier work
[7] = system: U266; details: U266, in vitro; cited from earlier work
[8] = system: A549; details: A549, in vitro; cited from earlier work
[9] = system: human hepatocellular carcinoma cell lines (HepG2 cells); details: cited from earlier work
[10] = system: human hepatocellular carcinoma cell lines (HepG2 cells); details: compared to free curcumin; cited from earlier work

**Q.** With `COc1cc(/C=C/C(O)=C/C(=O)/C=C/c2ccc(O[C@@H]3O[C@H](C(=O)O)[C@@H](O)[C@H](O)[C@H]3O)c(OC)c2)ccc1O` [curcumin monoglucuronide] as the compound, how does the tumor size ([1]; 30 mg/kg i.v., 0 day from start of administration) read?
**A.** 142.9±45.5 mm^3

**Q.** What about the tumor size ([1]; 30 mg/kg i.v., 4 days) of the same compound?
**A.** 275.1±88.1 mm^3

**Q.** What about the tumor size ([1]; 30 mg/kg i.v., 11 days) of the same compound?
**A.** 489.4±147.8 mm^3

**Q.** And the tumor size ([1]; 30 mg/kg i.v., 14 days)?
**A.** 581.2±197.4 mm^3

**Q.** And the tumor size ([1]; 90 mg/kg i.v., 0 day from start of administration)?
**A.** 17.4±3.2 mm^3

**Q.** What about the tumor size ([1]; 90 mg/kg i.v., 4 days) of the same compound?
**A.** 23.6±8.4 mm^3

**Q.** And the tumor size ([1]; 90 mg/kg i.v., 7 days)?
**A.** 42.6±16.6 mm^3

**Q.** And the tumor size ([1]; 90 mg/kg i.v., 11 days)?
**A.** 77.5±28.9 mm^3

**Q.** What about the tumor size ([1]; 90 mg/kg i.v., 14 days) of the same compound?
**A.** 122.9±42.6 mm^3

**Q.** What about the tumor size ([1]; 90 mg/kg i.v., 18 days) of the same compound?
**A.** 204.4±76.2 mm^3

**Q.** What about the tumor size ([1]; 90 mg/kg i.v., 21 days) of the same compound?
**A.** 190.2±70.1 mm^3

**Q.** What about the “serum biochemical test values (liver and biliary diseases set, 21 items)” value [2] of the same compound?
**A.** no abnormality was found in the test values

**Q.** What about the “prone position and reduction of locomotor activity, number of mice” value ([3]; male, Slc:ICR) of the same compound?
**A.** 5

**Q.** What about the “reduction of locomotor activity, number of mice” value ([3]; male, Slc:ICR) of the same compound?
**A.** 5

**Q.** What about the LD50 at 14 days ([3]; male, Slc:ICR, iv) of the same compound?
**A.** 500 to 1000 mg/kg

**Q.** What about the autopsy findings [3] of the same compound?
**A.** no abnormality was found

**Q.** What about the “state of mice by macroscopy” value [3] of the same compound?
**A.** no abnormality was found

**Q.** And the “concentration of the curcumin contained in the enzyme-treated sample” value [4]?
**A.** 159.1 ± 6.1 ng/mL

**Q.** And the “cell growth inhibitory effect” value [5]?
**A.** there is no such an effect

**Q.** And the “cell growth inhibitory effect” value [6]?
**A.** there is no such an effect

**Q.** What about the “cell growth inhibitory effect” value [7] of the same compound?
**A.** there is no such an effect

**Q.** And the “cell growth inhibitory effect” value [8]?
**A.** there is no such an effect

**Q.** And the “cell growth inhibitory effect” value [9]?
**A.** the effect was not found

**Q.** What about the “influence on the gene expression” value [10] of the same compound?
**A.** the action was extremely low
